The text below walks through data of paper PMC3944389, “Differential Neuroprotective Effects of 5′-Deoxy-5′-Methylthioadenosine” (PLoS ONE, 2014).

Marks after values point to notes of the source that are not given here.

The nature of data set [1]: Parallel artificial membrane permeability assay (PAMPA), BBB model, passive diffusion. The format is in vitro ADME. As to the method: The PAMPA assay was used to determine the capacity of compounds to cross a blood brain barrier (BBB) model by passive diffusion, measuring the effective permeability of the compounds at an initial concentration of 200 µM. The buffer solution was prepared from a concentrated commercial solution (Pion, Billerica, MA, US) according to the manufacturer's instructions and the pH was adjusted to 7.4 with 0.5 M NaOH. The compound of interest was dissolved in the buffer solution (200 µM), the PAMPA sandwich was separated and the donor well was filled with 195 µL of the compound of interest. The acceptor plate and donor plate were brought together, with the underside of the membrane in contact with the buffer. An 4 µL aliquot of the phospholipid mixture (20 mg/ml) in dodecane was added to the filter of each well, and then 200 µL of buffer solution was added to each acceptor well. The plate was covered and incubated for 4 h at RT in a saturated humidity atmosphere with agitation and with 25 µm of an unstirred water layer in the Gut-Box (Pion). After 4 h, a 150 µL/well sample from the donor plate and a 150 µL/well sample from the acceptor plate were transferred to HPLC vials. Then, 100 µL from acceptor well, 5 µL from the donor well and 5 µL from the t0 samples were injected into an HPLC reverse-phase symmetry C18 column (150 mm×4.6 mm×5 µm, 100 Å; Waters). Transport was confirmed by HPLC mass spectrometry and matrix-assisted laser desorption/ionization time-of-flight (MALDI-TOF) spectrometry to ensure the compound had maintained its integrity. The phospholipid mixture used was a porcine polar brain lipid extract composed of 12.6% phosphatidylcholine (PC), 33.1% phosphatidylethanolamine (PE), 18.5% phosphatidylserine (PS), 4.1% phosphatidylinositol (PI), 0.8% phosphatidic acid and 30.9% of other compounds.
For orientation: The PAMPA barrier holds no transporters, so it reflects passive diffusion.

Data set [2] has as its system primary rat oligodendrocyte (OL) cultures. Briefly: AMPA excitotoxicity in primary oligodendrocytes, calcein-AM viability. Particulars: MTA 100 and 300 µM pre-incubated 15 min, viability 24 h after AMPA. The format is cell-based. The protocol:
Primary rat oligodendrocyte (OL) cultures were derived from the optic nerve of 12-day-old Sprague-Dawley rats, as described previously. Cells were seeded onto 12 mm diameter coverslips coated with poly-D-lysine (10 µg/ml) in 24-well plates at a density of 5×10^3 cells per well. The cells were maintained at 37°C in 5% CO2 and in a chemically defined medium. After 2–4 days in vitro, the cultures were composed of at least 98% O4/galactocerebroside-positive (O4/GalC) cells, while the majority of the remaining cells were stained with antibodies against glial fibrillary acidic protein (GFAP). No A2B5^+ or microglial cells were detected in these cultures.
For a-amino-3-hydroxy-5-methyl-4-isoxazolepropionic acid (AMPA) assays in primary rat OLs, cells were pre-incubated with MTA (100 µM and 300 µM) for 15 min and then exposed to AMPA (10 µM) for an additional period of 15 min. Cell viability was assessed with calcein-AM (Invitrogen) 24 h after application of AMPA, and the number of survival cells on each coverslip was detected by their fluorescence (515 nm filter) and quantified.

For data set [3], the system named is C57Bl mice treated with MPTP. Put plainly: MPTP mouse model of Parkinson's disease, stereological counting of TH+ neurons. The class given is in vivo. As to conditions: MTA 30 mg/kg, MSX-3 10 mg/kg (legend: 9 mg/kg), alone or combined; MPTP 30 mg/kg i.p. 5 days. The protocol: 12-week-old male C57Bl mice from Charles River (Barcelona, Spain) were injected i.p. with 30 mg/kg 1-methyl-4-phenyl-1,2,3,6-tetrahydropyridine (MPTP, Sigma-Aldrich) on five consecutive days. Subsequently, MTA (30 mg/kg) and/or the A2A adenosine receptor (A2AR, 10 mg/kg) antagonist, MSX-3 (Sigma-Aldrich), was administered one day before starting MPTP treatment and 1 h after each MPTP injection (n = 6 in each experimental group). We used mice in the MPTP model because rats are resistant to systemic MPTP administration and thus, the rat MPTP model requires stereotaxic MPTP injection directly into the nigrostriatal fibers. […]
The reference volume was calculated according to Cavalieri principles from images obtained with a 2× objective using a point count array. The cross-sectional area of the nucleus was measured and the reference volume (Vr) for the entire nucleus was estimated using the following equation: [drawing 1] where T is the thickness of the sections, a/p is the area of each point and Pi is the number of points that landed within the area. The region of interest to estimate the area was outlined at low magnification (4×), and the number of labeled neurons was calculated under 100× magnification (with oil immersion) using randomized meander sampling and the optical dissector methods. […]

With 5′-deoxy-5′-methylthioadenosine [MTA], in data set [1], the Membrane retention entry is reported as “negligible” and the “effective permeability in PAMPA (in words)” value was “low to intermediate effective permeability”. Moreover, in data set [1] (200 µM, pH 7.4, 4 h at RT), the “% Membrane retention” value is reported as 0% and the “Pe x 10^−6 (cm/s)” value was 0.15 ^* x 10^−6 cm/s. The “protection of OLs against AMPA toxicity (calcein-AM)” value in data set [2] was “fully protected”. Besides, in data set [3], the “neuroprotection: TH+ neurons in the substantia nigra” value is recorded as “not statistically significant”.
